Measured values as given in patent US9447069B2, “ROR modulators and their uses” (INNOV17 LLC, priority 2012, dated 2016).
Read-outs that look alike come from different tables or passages of the source.

What was measured:
IL-17F = assay: TH17 cytokine inhibition measured by ELISA (IL-17F); assay type: cell-based; conditions: 120 h; human TH17 cells, 5 days differentiation, ELISA of supernatants, 0.1% DMSO
Protocol: (§1) Peripheral blood mononuclear cells (PBMCs) were sourced from freshly prepared leukocyte enriched plasma (buffy coat) from healthy volunteers from which PBMCs were isolated by density gradient centrifugation using Ficoll-Paque™ PLUS (GE Healthcare). Naïve CD4+ T cells were isolated using the Naïve CD4+ T cell Isolation Kit II (Miltenyi Biotec) as per manufacturer's instructions. CD4+ T cells were plated at 5×10^4 cells/well in 96 well plates pre-coated with immobilized human (h)-αCD3 antibody (eBioscience) then differentiated to TH17 cells using h-αCD28, h-αIFN-γ, h-αIL-4, h-IL-6, h-IL-23, h-IL-1β, h-TGF-β1 (eBioscience) and maintained in a cell culture incubator at 37° C. with 5% CO2 in TexMACS Medium (Miltenyi Biotec) supplemented with 1% Penicillin/Streptomycin (Lonza) over 5 days.
(§2) Human CD4+ T cells were differentiated to TH17 cells as described in the presence or absence of various concentrations of compounds in a final concentration of 0.1% DMSO in TexMACS medium. Supernatants were collected and stored at −20° C. until they were to be assayed for IL-17A, IL-17F, IL-17AF, IL-21 and/or IL-22 levels as determined by Ready-Set-Go ELISA kits (eBioscience) as per manufacturer's instructions. Endpoint absorbance was read at 450 nm and 570 nm according to manufacturer's instructions (eBioscience) using a microplate reader (Perkin Elmer). The percentage of cytokine inhibition was calculated with reference to DMSO treated cells and the IC50s were determined by GraphPad Prism software and presented in the table below.

IL-17AF = assay: TH17 cytokine inhibition measured by ELISA (IL-17AF); assay type: cell-based; conditions: 120 h; human TH17 cells, 5 days differentiation, ELISA of supernatants, 0.1% DMSO
Protocol: as §1, §2

IL-21 = assay: TH17 cytokine inhibition measured by ELISA (IL-21); assay type: cell-based; conditions: 120 h; human TH17 cells, 5 days differentiation, ELISA of supernatants, 0.1% DMSO
Protocol: as §1, §2

RORα LBD = biological target: T1, RORα LBD (Homo sapiens, UniProt P35398); assay: TR-FRET NCoR1-D2 co-repressor recruitment to RORα LBD; assay type: biochemical
T1 construct: purified GST-tagged (i) RORγ LBD or (ii) RORα LBD; purchased Life Technologies
T1 sequence (P35398 272-510 limits assumed): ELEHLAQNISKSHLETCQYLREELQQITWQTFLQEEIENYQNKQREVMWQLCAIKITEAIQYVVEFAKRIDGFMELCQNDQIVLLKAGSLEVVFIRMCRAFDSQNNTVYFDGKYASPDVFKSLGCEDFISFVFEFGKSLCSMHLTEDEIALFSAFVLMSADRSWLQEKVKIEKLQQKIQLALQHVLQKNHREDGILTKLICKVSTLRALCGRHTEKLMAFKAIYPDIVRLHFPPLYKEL
From the text: The Time-Resolved Fluorescence Resonance Energy Transfer (TR-FRET) assay kit (Life Technologies) was used to measure compound efficacy to disrupt or enhance ligand-mediated interaction of the co-activator and co-repressor peptides with the purified GST-tagged (i) RORγ LBD or (ii) RORα LBD. The RORγ LBD and RORα LBD each have a basal level of interaction with the co-activator D22 or co-repressor NCoR1-D2 in the absence of ligand, thus it is possible to identify compounds that inhibit or induce RORγ and/or RORα co-activator/co-repressor interactions, thus determining RORα, RORγ, or RORα/RORγ compound selectivity. The assay was performed as per manufacturer's instructions and TR-FRET was assessed 2 and 20 hours post-assay initiation. Compounds were identified to (i) have no impact on either co-activator displacement or […] from the assessed LBD (ii) promote co-activator displacement from the assessed LBD (iii) promote co-repressor recruitment to the assessed LBD or (iv) concurrently promote co-activator displacement from the assessed LBD and co-repressor recruitment to the assessed LBD.

[1] = TR-FRET assessed 2 hr post-assay initiation, read-out: RORα EC50 NCoR1-D2 co-repressor recruitment, 2 hr
[2] = TR-FRET assessed 20 hr post-assay initiation, read-out: RORα EC50 NCoR1-D2 co-repressor recruitment, 20 hr

Compound: Cc1cc(-c2ccc3c(c2)CCCN3Cc2ccc(C(O)(C(F)(F)F)C(F)(F)F)cc2)[nH]n1 [Example 1, 1,1,1,3,3,3-hexafluoro-2-(4-((6-(3-methyl-1H-pyrazol-5-yl)-3,4-dihydroquinolin-1(2H)-yl)methyl)phenyl)propan-2-ol]
- IC50 (IL-17F): < 10 µM
- IC50 (IL-17AF): < 10 µM
- IC50 (IL-21): < 10 µM
- EC50 (RORα LBD; [1]): < 30 µM
- EC50 (RORα LBD; [2]): < 30 µM

Compound: OC(c1ccc(CN2CCCc3cc(-c4cn[nH]c4)ccc32)cc1)(C(F)(F)F)C(F)(F)F [Example 2, 2-(4-((6-(1H-pyrazol-4-yl)-3,4-dihydroquinolin-1(2H)-yl)methyl)phenyl)-1,1,1,3,3,3-hexafluoropropan-2-ol]
- IC50 (IL-17F): < 10 µM
- IC50 (IL-17AF): < 10 µM
- IC50 (IL-21): < 10 µM
- EC50 (RORα LBD; [1]): < 30 µM
- EC50 (RORα LBD; [2]): < 30 µM

Compound: Cc1n[nH]c(-c2ccc3c(c2)CCCN3Cc2ccc(C(O)(C(F)(F)F)C(F)(F)F)cc2)n1 [Example 3, 1,1,1,3,3,3-hexafluoro-2-(4-((6-(3-methyl-1H-1,2,4-triazol-5-yl)-3,4-dihydroquinolin-1(2H)-yl)methyl)phenyl)propan-2-ol]
- IC50 (IL-17F): < 10 µM
- IC50 (IL-17AF): < 10 µM
- IC50 (IL-21): < 10 µM
- EC50 (RORα LBD; [1]): > 30 µM
- EC50 (RORα LBD; [2]): < 30 µM

Compound: Cc1cc(-c2ccc3c(c2)CCC(=O)N3Cc2ccc(C(O)(C(F)(F)F)C(F)(F)F)cc2)[nH]n1 [Example 4, 1-(4-(1,1,1,3,3,3-hexafluoro-2-hydroxypropan-2-yl)benzyl)-6-(3-methyl-1H-pyrazol-5-yl)-3,4-dihydroquinolin-2(1H)-one]
- IC50 (IL-17F): < 10 µM
- EC50 (RORα LBD; [1]): > 30 µM
- EC50 (RORα LBD; [2]): < 30 µM

Compound: O=C1CCc2cc(-c3cn[nH]c3)ccc2N1Cc1ccc(C(O)(C(F)(F)F)C(F)(F)F)cc1 [Example 5, 1-(4-(1,1,1,3,3,3-hexafluoro-2-hydroxypropan-2-yl)benzyl)-6-(1H-pyrazol-4-yl)-3,4-dihydroquinolin-2(1H)-one]
- IC50 (IL-17F): < 10 µM
- IC50 (IL-17AF): < 10 µM
- IC50 (IL-21): < 10 µM
- EC50 (RORα LBD; [1]): < 30 µM
- EC50 (RORα LBD; [2]): > 30 µM

Compound: Cc1n[nH]c(-c2ccc3c(c2)CCC(=O)N3Cc2ccc(C(O)(C(F)(F)F)C(F)(F)F)cc2)n1 [Example 6, 1-(4-(1,1,1,3,3,3-hexafluoro-2-hydroxypropan-2-yl)benzyl)-6-(3-methyl-1H-1,2,4-triazol-5-yl)-3,4-dihydroquinolin-2(1H)-one]
- IC50 (IL-17F): > 10 µM
- EC50 (RORα LBD; [1]): > 30 µM
- EC50 (RORα LBD; [2]): > 30 µM
